The values that follow come from doi:10.1101/2022.09.09.507210v3, “The class XIV myosin of Toxoplasma gondii, TgMyoA, is druggable in an animal model of infection” (biorxiv, 2023).

Where two headings read alike, the source gives them in different places.

For orientation: IC50 means the midpoint of a concentration-inhibition curve.

The nature of data set [1]: in vitro. On the set-up: species or system HFF. The settings on record: human, hepg2 cells, read-out: HepG2 cells 80 uM. Here is the method:
(§1) The table summarizes the activity of each of the compounds in assays measuring recombinant TgMyoA ATPase activity, parasite growth and mammalian cell toxicity; the data on which the table is based are shown in Suppl. Figures 3-5. ATPase assay data correspond to relative luminescence units × 10^−6 (mean from 3 independent replicates +/-SEM) in the presence of 20 μM compound (Suppl. Figure 3). […] Growth assay data correspond to calculated IC50 and 95% confidence interval from a 5-6 day growth assay (Suppl. Figure 4). […] Toxicity assay entries summarize the results from 72-hour CellTox™ Green toxicity and CellTiter-Glo® viability assays on both human foreskin fibroblasts and HepG2 cells. Thresholds for mild and moderate toxicity and loss of viability compared to vehicle (DMSO) controls are indicated by the colored bars on the right hand side of Suppl. […] Fluorescence was measured daily to quantify parasite growth, in the continued presence of compound, over the next 7 days. RFU = relative fluorescence units. The data shown are the mean ± SEM from two independent biological replicates, each consisting of 3 technical replicates at all time points. […] See Figure 5A for a repeat of these growth assays and IC50 calculations. […] Cell viability/growth was measured using Promega CellTiter-Glo® (top panel) and toxicity was measured using Promega CellTox™ green (bottom panel). 0.1% w/v NaN3 served as a positive control for cytotoxicity / growth inhibition. Results are plotted relative to the DMSO controls. Bars show the mean of three independent experiments ± SEM.

Data set [2] deals with T1, Toxoplasma gondii RH (tdTomato).
T1 construct: RH
Description: microbe, parasite or virus in culture. On the set-up: species or system HFF (host); tdTomato parasite growth in HFF cells, daily fluorescence, IC50 at day 5-6. The settings on record: HFF. Here is the method:
557 558 Parasite growth assays. Fluorescence-based growth assay. To quantify growth in the presence of compound(s), 1x10^4 559 tachyzoites were preincubated with compound for 5 minutes prior to inoculation onto 560 3 wells of a black sided, clear bottom 384-well plate containing a confluent monolayer of HFF cells. For 561 compound assays, parasites expressing tdTomato were incubated with vehicle or serial dilutions of 562 compound, maintaining a constant DMSO concentration (0.2% v/v). The fluorescent signal was 563 quantified daily for 7 days (ex 530/25, em 590/35) on a Biotek synergy 2 plate reader. The IC50 of growth 564 inhibitory compounds was quantified using GraphPad Prism. Plaque assay. 10, 100, 200, or 500 565 parasites were used to inoculate a confluent monolayer of HFF cells in a 12-well plate and incubated for 566 7 days at 37 °C, 5% CO2. Infected monolayers were then washed with phosphate-buffered saline, fixed 567 with 100% EtOH for five minutes, stained with 5X crystal violet solution (12.5 g crystal violet, 125 ml 568 100% EtOH, 500 ml 1% w/v ammonium oxalate) for 5 minutes, washed with PBS, and allowed to dry.  Figure 3: Preliminary structure-activity relationship (SAR) analysis. […] The table summarizes the activity of each of the compounds in assays measuring recombinant TgMyoA ATPase activity, parasite growth and mammalian cell toxicity; the data on which the table is based are shown in Suppl. Figures 3-5. ATPase assay data correspond to relative luminescence units × 10^−6 (mean from 3 independent replicates +/-SEM) in the presence of 20 μM compound (Suppl. Figure 3). […] Growth assay data correspond to calculated IC50 and 95% confidence interval from a 5-6 day growth assay (Suppl. Figure 4). […] Toxicity assay entries summarize the results from 72-hour CellTox™ Green toxicity and CellTiter-Glo® viability assays on both human foreskin fibroblasts and HepG2 cells. Thresholds for mild and moderate toxicity and loss of viability compared to vehicle (DMSO) controls are indicated by the colored bars on the right hand side of Suppl. […] Fluorescence was measured daily to quantify parasite growth, in the continued presence of compound, over the next 7 days. RFU = relative fluorescence units. The data shown are the mean ± SEM from two independent biological replicates, each consisting of 3 technical replicates at all time points. […] See Figure 5A for a repeat of these growth assays and IC50 calculations. […] Cell viability/growth was measured using Promega CellTiter-Glo® (top panel) and toxicity was measured using Promega CellTox™ green (bottom panel). 0.1% w/v NaN3 served as a positive control for cytotoxicity / growth inhibition. Results are plotted relative to the DMSO controls. Bars show the mean of three independent experiments ± SEM.

A short description of data set [3]: in vitro. Set-up: species or system HepG2. Particulars: human, hff cells, read-out: HFF cells 80 uM. The protocol: as §1
The target of data set [4] is T2, rabbit fast skeletal muscle myosin.
T2 construct: gene MYH4; native rabbit fast skeletal myofibrils, full length, with native light chains and thin filaments
The data set can be described thus: myofibril ATPase assay. It counts as biochemical, Oryctolagus cuniculus. Particulars: 75% calcium activation (pCa75); up to 40 μM tested. The source says:
myofibril ATPase assay on rabbit fast skeletal muscle myosin

Take `COc1ccc([C@H](C)NCc2c[nH]nc2-c2cccs2)cc1` [VEST15, (S)-1-(4-methoxyphenyl)-N-((3-(thiophen-2-yl)-1H-pyrazol-4-yl)methyl)ethan-1-amine]: the CC50 at 72 h in “in vitro [1]” is more than 80 µM. The IC50 in data set [2] (read-out: Parasite Growth IC50) was found to be 39.7 µM.
Take `Clc1ccc(C2(NCc3c[nH]nc3-c3cccs3)CC2)cc1` [VEST2, 1-(4-chlorophenyl)-N-((3-(thiophen-2-yl)-1H-pyrazol-4-yl)methyl)cyclopropan-1-amine]: in data set [2] (read-out: Parasite Growth IC50), the IC50 was determined as 15.5 µM.
Regarding `Cc1ccc(C2(NCc3c[nH]nc3-c3cccs3)CC2)cc1` [VEST3, N-((3-(thiophen-2-yl)-1H-pyrazol-4-yl)methyl)-1-(p-tolyl)cyclopropan-1-amine], the IC50 in data set [2] (read-out: Parasite Growth IC50) was found to be 25.4 µM.
`c1ccc(C2(NCc3c[nH]nc3-c3cccs3)CC2)cc1` [VEST5, 1-phenyl-N-((3-(thiophen-2-yl)-1H-pyrazol-4-yl)methyl)cyclopropan-1-amine]: the CC50 at 72 h in the data set “in vitro [1]” and in “in vitro [3]” was more than 80 µM in each case. Also, the IC50 in data set [2] (read-out: Parasite Growth IC50) amounted to 9.9 µM.
Turning to `COc1ccc(C2(NCc3ccoc3)CC2)cc1` [VEST9, N-(furan-3-ylmethyl)-1-(4-methoxyphenyl)cyclopropan-1-amine], the CC50 at 72 h in the data set “in vitro [1]” and in “in vitro [3]” was more than 80 µM each time. In addition, the IC50 in data set [2] (read-out: Parasite Growth IC50) is more than 80 µM.
For the compound `COc1ccc(C2(NCc3c[nH]nc3-c3ccccc3)CC2)cc1` [VEST6, 1-(4-methoxyphenyl)-N-((3-phenyl-1H-pyrazol-4-yl)methyl)cyclopropan-1-amine], the CC50 at 72 h in the data set “in vitro [1]” and in “in vitro [3]” was more than 80 µM in each case. Further, in data set [2] (read-out: Parasite Growth IC50), the IC50 is 24.9 µM.
Turning to `COc1ccc(C2(NCc3cncs3)CC2)cc1` [VEST8, 1-(4-methoxyphenyl)-N-(thiazol-5-ylmethyl)cyclopropan-1-amine], the CC50 at 72 h in “in vitro [1]” and in the data set “in vitro [3]” was more than 80 µM throughout. For the same compound, the IC50 in data set [2] (read-out: Parasite Growth IC50) was more than 80 µM.
Turning to `c1csc(-c2n[nH]cc2CNC2CC2)c1` [VEST1, N-((3-(thiophen-2-yl)-1H-pyrazol-4-yl)methyl)cyclopropanamine], the CC50 at 72 h in “in vitro [1]” and in the data set “in vitro [3]” was more than 80 µM throughout. In addition, the IC50 in data set [2] (read-out: Parasite Growth IC50) is more than 80 µM.
For the compound `COc1ccc(C2(NCc3cc[nH]c3)CC2)cc1` [VEST10, N-((1H-pyrrol-3-yl)methyl)-1-(4-methoxyphenyl)cyclopropan-1-amine], the CC50 at 72 h in the data set “in vitro [1]” and in the data set “in vitro [3]” was more than 80 µM each time. Moreover, the IC50 in data set [2] (read-out: Parasite Growth IC50) was determined as 21.7 µM.
On to `c1ccc(CNCc2c[nH]nc2-c2cccs2)cc1` [VEST12, N-benzyl-1-(3-(thiophen-2-yl)-1H-pyrazol-4-yl)methanamine], for which, in the data set “in vitro [1]”, the CC50 at 72 h was more than 80 µM. In addition, the half-maximal inhibitory concentration (IC50) in data set [2] (read-out: Parasite Growth IC50) was more than 80 µM.
In the case of `Clc1ccc(C2(NCc3c[nH]nc3-c3cccs3)CC2)cc1Cl` [VEST4, 1-(3,4-dichlorophenyl)-N-((3-(thiophen-2-yl)-1H-pyrazol-4-yl)methyl)cyclopropan-1-amine], the CC50 at 72 h in the data set “in vitro [1]” and in “in vitro [3]” was more than 80 µM in each case. In addition, the half-maximal inhibitory concentration (IC50) in data set [2] (read-out: Parasite Growth IC50) turned out to be 31 µM.
Regarding `COc1ccc(C2(NCc3ccccc3)CC2)cc1` [VEST7, N-benzyl-1-(4-methoxyphenyl)cyclopropan-1-amine], the CC50 at 72 h in the data set “in vitro [1]” and in the data set “in vitro [3]” was more than 80 µM in each case. For the same compound, the IC50 in data set [2] (read-out: Parasite Growth IC50) is more than 80 µM.
As for `CC(C)(NCc1c[nH]nc1-c1cccs1)c1ccccc1` [VEST13, 2-phenyl-N-((3-(thiophen-2-yl)-1H-pyrazol-4-yl)methyl)propan-2-amine], in “in vitro [1]”, the CC50 at 72 h was more than 80 µM. Also, the IC50 in data set [2] (read-out: Parasite Growth IC50) was 27.1 µM.
Turning to `COc1ccc(CNCc2c[nH]nc2-c2cccs2)cc1` [VEST11, N-(4-methoxybenzyl)-1-(3-(thiophen-2-yl)-1H-pyrazol-4-yl)methanamine], the CC50 at 72 h in “in vitro [1]” and in “in vitro [3]” was more than 80 µM throughout. The IC50 in data set [2] (read-out: Parasite Growth IC50) is more than 80 µM.
For the compound `COc1ccc([C@@H](C)NCc2c[nH]nc2-c2cccs2)cc1` [VEST14, (R)-1-(4-methoxyphenyl)-N-((3-(thiophen-2-yl)-1H-pyrazol-4-yl)methyl)ethan-1-amine], the CC50 at 72 h in the data set “in vitro [1]” is more than 80 µM. In addition, the IC50 in data set [2] (read-out: Parasite Growth IC50) is 44.3 µM.
Turning to `COc1ccc(C2(NCc3c[nH]nc3-c3cccs3)CC2)cc1` [KNX-002, 1-(4-methoxyphenyl)-N-((3-(thiophen-2-yl)-1H-pyrazol-4-yl)methyl)cyclopropan-1-amine], the CC50 at 72 h in “in vitro [1]” and in the data set “in vitro [3]” was more than 80 µM in each case. Also, the IC50 in data set [2] (read-out: IC50 (D5)) is 14.9 µM; in data set [2] (read-out: Parasite Growth IC50), 19.7 µM; in data set [4] it was more than 39.2 µM.
